According to US10052320B2, “Substituted quinoxalines as FGFR kinase inhibitors” (ASTEX THERAPEUTICS LIMITED, priority 2011, dated 2018):

Tests used:
[1] = target: Ba/F3-FGFR3-transfected cells (Homo sapiens, UniProt P22607); assay: Ba/F3-FGFR3 (minus IL3) cellular proliferation assay, Alamar Blue; assay type: cell-based; settings: minus IL3, 384 well
Procedure: Ba/F3-FGFR3 (Minus IL3 or Plus IL3) (Cellular Proliferation Assay)
Cells were put in an incubator at 37° C. and 5% CO2. After 24 hours, 10 μl of Alamar Blue solution (0.5 mM K3Fe(CN)6, 0.5 mM KaFe(CN)6, 0.15 mM Resazurin and 100 mM Phosphate Buffer) was added to the wells, incubated for 4 hours at 37° C. and 5% CO2 before RFU's (Relative Fluorescence Units) (ex. 540 nm., em. 590 nm.) were measured in a flurorescence plate reader. […]
(§1) In a 96 well plate, 180 μl cell culture medium (phenol red free RPMI-1640, 10% FBS, 2 mM L-Glutamine and 50 μg/ml Gentamycin) containing 10000 cells per well of Ba/F3-FGFR3-transfected cells were pipette and 20 μl of compound dilution in DMSO was added. Cells were put in an incubator at 37° C. and 5% CO2. After 24 hours, 40 μl of Alamar Blue solution (0.5 mM K3Fe(CN)6, 0.5 mM KaFe(CN)6, 0.15 mM Resazurin and 100 mM Phosphate Buffer) was added to the wells, incubated for 4 hours at 37° C. and 5% CO2 before RFU's (Relative Fluorescence Units) (ex. 540 nm., em. 590 nm.) were measured in a flurorescence plate reader.

[2] = target: KDR (h) (VEGFR2) (Homo sapiens, UniProt P35968); assay: KDR (VEGFR2) (enzymatic assay), TR-FRET; assay type: biochemical
Outline: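 Phosphorylation of biotinylated Flt3 peptide (500 nM) by 150 ng/ml enzyme was measured at 3 μM ATP in Mn2+-containing HEPES buffer, pH 7.5, over 120 min at room temperature. Detection used Eu-anti-P-Tyr and SA-XL-665 TR-FRET.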

[3] = tested on: Ba/F3-KDR-transfected cells in the presence of 10 ng/ml murine IL3; assay: Ba/F3-KDR (plus IL3) cellular proliferation counterscreen, Alamar Blue; assay type: cell-based; settings: plus 10 ng/ml murine IL3; for IC50: Mus musculus, read-out: BAF3-KDR (PLUS IL3) 384 well pIC50 (converted)
Procedure: Ba/F3-KDR (Minus IL3 or Plus IL3) (Cellular Proliferation Assay)
[…] Cells were put in an incubator at 37° C. and 5% CO2. After 24 hours, 10 μl of Alamar Blue solution (0.5 mM K3Fe(CN)6, 0.5 mM KaFe(CN)6, 0.15 mM Resazurin and 100 mM Phosphate Buffer) was added to the wells, incubated for 4 hours at 37° C. and 5% CO2 before RFU's (Relative Fluorescence Units) (ex. 540 nm., em. 590 nm.) were measured in a flurorescence plate reader.
As a counterscreen the same experiment was performed in the presence of 10 ng/ml murine IL3.
as §1, with “Ba/F3-KDR-transfected” for “Ba/F3-FGFR3-transfected”, “CO2” for “CO2 before”

[4] = target: FGFR1 (h) (Homo sapiens, UniProt P11362); assay: FGFR1 (enzymatic assay), TR-FRET; assay type: biochemical; settings: read-out: FGFR 1 pIC50 (converted)
Procedure: In a final reaction volume of 30 μL, FGFR1 (h) (25 ng/ml) was incubated with 50 mM HEPES pH 7.5, 6 mM MnCl2, 1 mM DTT, 0.1 mM Na3VO4, 0.01% Triton-X-100, 500 nM Btn-Flt3 and 5 μM ATP in the presence of compound (1% DMSO final). […] Time-Resolved Fluorescence Resonance Energy Transfer (TR-FRET) signal (ex340 nm. Em 620 nm, em 655 nm) was measured afterwards and results are expressed in RFU (Relative Fluorescence Units).

[5] = target: Ba/F3-KDR-transfected cells (Homo sapiens, UniProt P35968); assay: Ba/F3-KDR (minus IL3) cellular proliferation assay, Alamar Blue; assay type: cell-based; settings: minus IL3
Outline: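 Compound in DMSO was combined with Ba/F3-KDR-transfected cells in RPMI-1640, 10% FBS, 2 mM L-glutamine. After 24 h incubation at 37 °C, Alamar Blue was added for a further 4 h, then relative fluorescence units were measured.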

Sequence of Ba/F3-FGFR3-transfected cells (P22607 whole entry, change not shown): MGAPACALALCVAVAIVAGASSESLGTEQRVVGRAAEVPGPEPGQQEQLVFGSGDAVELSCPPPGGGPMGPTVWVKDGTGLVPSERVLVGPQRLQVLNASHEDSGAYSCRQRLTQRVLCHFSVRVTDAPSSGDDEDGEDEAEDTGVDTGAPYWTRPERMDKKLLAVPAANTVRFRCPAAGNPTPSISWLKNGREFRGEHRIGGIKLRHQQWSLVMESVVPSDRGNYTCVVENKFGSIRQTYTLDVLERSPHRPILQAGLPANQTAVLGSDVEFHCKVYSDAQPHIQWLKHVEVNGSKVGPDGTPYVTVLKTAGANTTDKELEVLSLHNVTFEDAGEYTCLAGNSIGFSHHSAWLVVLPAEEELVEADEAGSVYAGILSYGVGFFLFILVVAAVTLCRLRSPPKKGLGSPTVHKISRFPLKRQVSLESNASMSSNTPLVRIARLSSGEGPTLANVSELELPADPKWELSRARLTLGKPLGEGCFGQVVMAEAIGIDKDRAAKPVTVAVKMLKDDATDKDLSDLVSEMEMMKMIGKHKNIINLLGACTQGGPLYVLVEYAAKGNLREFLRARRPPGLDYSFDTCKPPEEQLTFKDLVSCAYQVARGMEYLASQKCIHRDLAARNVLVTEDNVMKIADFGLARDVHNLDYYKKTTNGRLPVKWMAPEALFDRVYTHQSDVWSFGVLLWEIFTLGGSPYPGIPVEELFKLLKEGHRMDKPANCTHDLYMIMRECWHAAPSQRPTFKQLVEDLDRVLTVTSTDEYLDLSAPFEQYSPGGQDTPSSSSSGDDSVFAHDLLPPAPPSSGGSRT
Sequence of KDR (h) (VEGFR2) (P35968 20-1356): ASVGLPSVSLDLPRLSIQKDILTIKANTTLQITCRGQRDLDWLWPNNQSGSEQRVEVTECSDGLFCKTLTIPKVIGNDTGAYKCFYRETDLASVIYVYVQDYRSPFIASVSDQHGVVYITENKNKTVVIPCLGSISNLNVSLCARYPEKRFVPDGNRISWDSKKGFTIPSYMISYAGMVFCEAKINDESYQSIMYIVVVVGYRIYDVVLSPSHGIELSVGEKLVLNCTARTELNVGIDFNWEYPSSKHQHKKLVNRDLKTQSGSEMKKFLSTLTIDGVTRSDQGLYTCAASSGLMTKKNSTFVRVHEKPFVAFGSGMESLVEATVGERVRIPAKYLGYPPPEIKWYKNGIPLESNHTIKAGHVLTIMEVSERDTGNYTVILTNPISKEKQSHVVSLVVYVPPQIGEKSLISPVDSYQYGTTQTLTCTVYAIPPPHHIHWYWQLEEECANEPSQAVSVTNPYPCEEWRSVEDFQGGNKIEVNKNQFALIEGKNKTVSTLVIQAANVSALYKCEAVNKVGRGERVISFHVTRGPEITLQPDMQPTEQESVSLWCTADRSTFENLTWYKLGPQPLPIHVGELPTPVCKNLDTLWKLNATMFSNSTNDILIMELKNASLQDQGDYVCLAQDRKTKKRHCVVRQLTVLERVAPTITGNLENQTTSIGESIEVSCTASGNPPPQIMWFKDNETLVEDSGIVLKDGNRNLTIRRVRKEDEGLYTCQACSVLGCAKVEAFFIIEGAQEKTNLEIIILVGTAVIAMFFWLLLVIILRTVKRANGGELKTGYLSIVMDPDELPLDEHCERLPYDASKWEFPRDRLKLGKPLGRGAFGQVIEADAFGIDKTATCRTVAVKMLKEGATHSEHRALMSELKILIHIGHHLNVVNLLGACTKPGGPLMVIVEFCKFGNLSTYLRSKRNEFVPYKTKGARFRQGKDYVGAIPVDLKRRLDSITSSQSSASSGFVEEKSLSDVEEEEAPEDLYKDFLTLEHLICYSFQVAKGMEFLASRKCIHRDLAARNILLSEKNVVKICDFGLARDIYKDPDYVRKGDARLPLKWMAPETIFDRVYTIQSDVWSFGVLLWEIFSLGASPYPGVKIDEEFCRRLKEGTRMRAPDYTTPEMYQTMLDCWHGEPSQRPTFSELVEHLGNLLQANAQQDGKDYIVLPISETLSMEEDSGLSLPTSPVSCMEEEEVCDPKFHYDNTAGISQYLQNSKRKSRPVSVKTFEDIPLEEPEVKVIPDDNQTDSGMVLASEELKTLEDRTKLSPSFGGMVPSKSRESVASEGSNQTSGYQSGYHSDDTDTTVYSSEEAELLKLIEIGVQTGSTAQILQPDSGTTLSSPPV
Sequence of FGFR1 (h) (P11362 22-822): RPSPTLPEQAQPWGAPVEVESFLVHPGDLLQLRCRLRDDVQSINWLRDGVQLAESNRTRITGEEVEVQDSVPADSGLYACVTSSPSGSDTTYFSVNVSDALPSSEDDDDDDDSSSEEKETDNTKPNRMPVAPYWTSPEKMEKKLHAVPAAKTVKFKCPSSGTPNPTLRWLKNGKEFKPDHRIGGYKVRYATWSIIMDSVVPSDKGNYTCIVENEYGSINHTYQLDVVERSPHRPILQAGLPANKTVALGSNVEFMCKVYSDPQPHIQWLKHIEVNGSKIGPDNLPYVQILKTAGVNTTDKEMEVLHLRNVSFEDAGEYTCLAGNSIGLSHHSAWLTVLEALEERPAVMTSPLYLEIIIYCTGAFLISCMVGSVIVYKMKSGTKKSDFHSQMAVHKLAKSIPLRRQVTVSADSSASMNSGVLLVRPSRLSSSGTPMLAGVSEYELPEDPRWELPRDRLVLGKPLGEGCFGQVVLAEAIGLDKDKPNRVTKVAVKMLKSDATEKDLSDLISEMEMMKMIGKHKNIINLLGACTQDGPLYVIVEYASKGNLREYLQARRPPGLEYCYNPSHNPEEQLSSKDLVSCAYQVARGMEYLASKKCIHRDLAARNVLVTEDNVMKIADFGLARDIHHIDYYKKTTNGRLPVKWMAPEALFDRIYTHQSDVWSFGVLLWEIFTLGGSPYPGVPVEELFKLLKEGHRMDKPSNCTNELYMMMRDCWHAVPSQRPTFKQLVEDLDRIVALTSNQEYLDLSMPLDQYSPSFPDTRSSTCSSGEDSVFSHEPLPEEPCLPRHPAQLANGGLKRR
Sequence of Ba/F3-KDR-transfected cells (P35968 whole entry, change not shown): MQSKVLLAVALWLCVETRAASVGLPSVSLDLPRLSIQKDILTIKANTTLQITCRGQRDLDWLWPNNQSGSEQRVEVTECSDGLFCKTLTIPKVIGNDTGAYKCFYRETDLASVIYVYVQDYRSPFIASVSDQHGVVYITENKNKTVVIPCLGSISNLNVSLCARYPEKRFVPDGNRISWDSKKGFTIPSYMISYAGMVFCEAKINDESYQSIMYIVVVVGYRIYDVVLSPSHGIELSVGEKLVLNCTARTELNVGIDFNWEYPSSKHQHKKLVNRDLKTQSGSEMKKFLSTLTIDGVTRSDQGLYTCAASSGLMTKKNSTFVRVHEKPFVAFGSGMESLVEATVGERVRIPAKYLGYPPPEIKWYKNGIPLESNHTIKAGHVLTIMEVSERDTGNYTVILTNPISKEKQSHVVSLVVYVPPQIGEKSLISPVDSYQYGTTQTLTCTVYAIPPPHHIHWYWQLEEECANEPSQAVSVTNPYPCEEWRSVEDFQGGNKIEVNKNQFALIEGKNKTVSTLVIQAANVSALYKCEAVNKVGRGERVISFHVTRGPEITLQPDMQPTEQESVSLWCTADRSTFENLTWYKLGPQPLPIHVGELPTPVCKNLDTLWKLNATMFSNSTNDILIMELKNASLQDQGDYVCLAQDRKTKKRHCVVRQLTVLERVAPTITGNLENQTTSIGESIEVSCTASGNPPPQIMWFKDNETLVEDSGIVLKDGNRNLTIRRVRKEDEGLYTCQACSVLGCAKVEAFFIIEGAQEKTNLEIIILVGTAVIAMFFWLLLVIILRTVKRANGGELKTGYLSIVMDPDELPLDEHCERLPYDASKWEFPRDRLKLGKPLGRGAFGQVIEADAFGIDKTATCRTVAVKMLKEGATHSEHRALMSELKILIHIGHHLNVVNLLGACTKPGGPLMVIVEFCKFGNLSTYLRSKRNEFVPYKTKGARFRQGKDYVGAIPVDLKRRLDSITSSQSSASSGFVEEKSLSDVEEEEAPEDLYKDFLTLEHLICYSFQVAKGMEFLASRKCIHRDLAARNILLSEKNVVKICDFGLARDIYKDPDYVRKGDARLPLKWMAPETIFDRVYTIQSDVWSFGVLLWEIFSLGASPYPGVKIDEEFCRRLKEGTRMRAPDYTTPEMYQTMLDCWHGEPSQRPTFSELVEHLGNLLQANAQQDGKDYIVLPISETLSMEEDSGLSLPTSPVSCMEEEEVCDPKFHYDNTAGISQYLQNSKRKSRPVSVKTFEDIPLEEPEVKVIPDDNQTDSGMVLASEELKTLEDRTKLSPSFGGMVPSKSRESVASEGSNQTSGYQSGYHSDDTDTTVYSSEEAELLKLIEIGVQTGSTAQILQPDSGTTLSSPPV

Compound | BAF3-FGFR 3 (MIN IL3) 384 well pIC50 [1] | IC50 [2] [µM] | IC50 [3] [µM] | IC50 [4] [µM] | BAF3-KDR (MIN IL3) 384 well pIC50 [5] | BAF3-KDR (PLUS IL3) 384 well pIC50 [3]
COc1cc(OC)cc(N(CCNC(C)C)c2ccc3ncc(C(=O)N4CCN(C)CC4)nc3c2)c1 [Compound 179] | 5.19 | 0.0776 | > 10 | 0.204 | <5 | –
COc1cc(OC)cc(N(CCO)c2ccc3ncc(C4CCN(C(=O)OC(C)(C)C)CC4)nc3c2)c1 [Compound 185] | 5.01 | > 1 | > 10 | 0.316 | <5 | –
COc1cc(OC)cc(N(CCNC(C)C)c2ccc3ncc(C(=O)NCCCN4CCN(C)CC4)nc3c2)c1 [Compound 159] | 5.82 | > 1 | > 10 | 0.0316 | <5 | –
COc1cc(OC)cc(N(CCNC(C)C)c2ccc3ncc(-c4ccn[nH]4)nc3c2)c1 [Compound 189] | ~7.1 | 0.126 | > 10 | 0.00282 | 5.14 | –
COc1cc(OC)cc(N(CCNC(C)C)c2ccc3ncc(C(=O)N4CCCCC4)nc3c2)c1 [Compound 180] | 5.28 | 0.191 | > 10 | 0.229 | <5 | –
COc1cc(OC)cc(N(CCNC(C)C)c2ccc3ncc(-n4cnc(CO)c4)nc3c2)c1 [Compound 77] | 7.12 | 0.513 | > 10 | 0.00224 | 5.29 | –
COc1cc(OC)cc(N(CCNC(C)C)c2ccc3ncc(NCC4CCNCC4)nc3c2)c1 [Compound 161] | 5.38 | 0.617 | > 10 | 0.00589 | <5 | –
COc1cc(OC)cc(N(CCNC(C)C)c2ccc3ncc(N4CCC(CN)CC4)nc3c2)c1 [Compound 67] | 5.83 | 0.447 | > 10 | 0.00331 | 5 | –
COc1cc(OC)cc(N(CCNC(C)C)c2ccc3ncc(-c4ccc(N5CCN(C)CC5)nc4)nc3c2)c1 [Compound 170] | 6.16 | 0.135 | > 10 | 0.000813 | <5 | –
COCC(CN(c1cc(OC)cc(OC)c1)c1ccc2ncc(-c3cccnc3)nc2c1)OC(C)=O (single isomer, unassigned) [Compound 76] | 6.59 | 0.389 | – | 0.0117 | <5 | <5
COc1cc(OC)cc(N(CCO)c2ccc3ncc(-c4ccnc(C(=O)NCCCCCO)c4)nc3c2)c1 [Compound 139] | 5.72 | 0.692 | > 10 | 0.0316 | <5 | –
COC(=O)C1CCCN1c1cnc2ccc(N(CCO)c3cc(OC)cc(OC)c3)cc2n1 (centres unmarked) [Compound 172] | 5.36 | > 1 | > 10 | 0.107 | <5 | –
COc1cc(OC)cc(N(CCNC(C)C)c2ccc3ncc(C(=O)N4CCOCC4)nc3c2)c1 [Compound 181] | 5.16 | > 1 | > 10 | 0.295 | <5 | –
COc1cc(OC)cc(N(CCNC(C)C)c2ccc3ncc(C(=O)NCCN4CCOCC4)nc3c2)c1 [Compound 160] | – | > 1 | > 10 | 0.0427 | <5 | –
COc1cc(OC)cc(N(CCCNCC(F)(F)F)c2ccc3ncc(C(=O)NCCN4CCOCC4)nc3c2)c1 [Compound 158] | <5 | > 1 | > 10 | 0.398 | <5 | –
